Data on eight compounds can be found in ChEMBL document CHEMBL1629698, “Identification of the novel dfrK-carrying transposon Tn559 in a porcine methicillin-susceptible Staphylococcus aureus ST398 strain” (2010).

≈ marks a conversion by molar mass, not a printed value.

The test system of the test is Staphylococcus aureus. The experiment in a line: Antimicrobial activity against Staphylococcus aureus 2171 by broth microdilution method. The class given is functional. Background: Broth dilution looks for growth in wells or tubes with falling amounts of substance.
Usually MIC stands for the lowest concentration found to suppress growth. Read a low MIC as greater potency. As for `CC1(C)S[C@@H]2[C@H](NC(=O)[C@H](N)c3ccccc3)C(=O)N2[C@H]1C(=O)O` [AMPICILLIN], the lowest concentration to inhibit growth (MIC) was 4 µg/mL (≈ 11.4 µM).

`CCC[C@@H]1C[C@@H](C(=O)N[C@@H]([C@H]2O[C@H](SC)[C@H](O)[C@@H](O)[C@H]2O)[C@H](C)Cl)N(C)C1` [CLINDAMYCIN] yielded an MIC of no less than 128 µg/mL.

In turn, `CCN1CCN(c2cc3c(cc2F)c(=O)c(C(=O)O)cn3C2CC2)CC1` [ENROFLOXACIN] yielded an MIC of 8 µg/mL (≈ 22.3 µM).

`CC[C@H]1OC(=O)[C@H](C)[C@@H](O[C@H]2C[C@@](C)(OC)[C@@H](O)[C@H](C)O2)[C@H](C)[C@@H](O[C@@H]2O[C@H](C)C[C@H](N(C)C)[C@H]2O)[C@](C)(O)C[C@@H](C)C(=O)[C@H](C)[C@@H](O)[C@]1(C)O` [ERYTHROMYCIN] displayed an MIC of no less than 64 µg/mL.

Take `Cc1onc(-c2ccccc2)c1C(=O)N[C@@H]1C(=O)N2[C@@H]1SC(C)(C)[C@@H]2C(=O)O` [OXACILLIN]: the MIC stood at 0.5 µg/mL (≈ 1.25 µM).

Regarding `CC1(C)S[C@@H]2[C@H](NC(=O)Cc3ccccc3)C(=O)N2[C@H]1C(=O)O` [PENICILLIN G], the minimal inhibitory concentration (MIC) was 8 µg/mL (≈ 23.9 µM).

`CN(C)[C@@H]1C(O)=C(C(N)=O)C(=O)[C@@]2(O)C(O)=C3C(=O)c4c(O)cccc4[C@@](C)(O)[C@H]3C[C@@H]12` [TETRACYCLINE] gave an MIC of 32 µg/mL (≈ 72 µM).

In turn, `COc1cc(Cc2cnc(N)nc2N)cc(OC)c1OC` [TRIMETHOPRIM] displayed an MIC of no less than 128 µg/mL.
